{
  "source": "patent US8895512B2",
  "about": "“Composition for improving brain function and method for improving brain function” (Calpis Co., Ltd., priority 2010, dated 2014)",
  "key": {"[1]": {"target": "ACE (Homo sapiens, UniProt P12821)", "sequence (P12821 30-1306, species assumed)": "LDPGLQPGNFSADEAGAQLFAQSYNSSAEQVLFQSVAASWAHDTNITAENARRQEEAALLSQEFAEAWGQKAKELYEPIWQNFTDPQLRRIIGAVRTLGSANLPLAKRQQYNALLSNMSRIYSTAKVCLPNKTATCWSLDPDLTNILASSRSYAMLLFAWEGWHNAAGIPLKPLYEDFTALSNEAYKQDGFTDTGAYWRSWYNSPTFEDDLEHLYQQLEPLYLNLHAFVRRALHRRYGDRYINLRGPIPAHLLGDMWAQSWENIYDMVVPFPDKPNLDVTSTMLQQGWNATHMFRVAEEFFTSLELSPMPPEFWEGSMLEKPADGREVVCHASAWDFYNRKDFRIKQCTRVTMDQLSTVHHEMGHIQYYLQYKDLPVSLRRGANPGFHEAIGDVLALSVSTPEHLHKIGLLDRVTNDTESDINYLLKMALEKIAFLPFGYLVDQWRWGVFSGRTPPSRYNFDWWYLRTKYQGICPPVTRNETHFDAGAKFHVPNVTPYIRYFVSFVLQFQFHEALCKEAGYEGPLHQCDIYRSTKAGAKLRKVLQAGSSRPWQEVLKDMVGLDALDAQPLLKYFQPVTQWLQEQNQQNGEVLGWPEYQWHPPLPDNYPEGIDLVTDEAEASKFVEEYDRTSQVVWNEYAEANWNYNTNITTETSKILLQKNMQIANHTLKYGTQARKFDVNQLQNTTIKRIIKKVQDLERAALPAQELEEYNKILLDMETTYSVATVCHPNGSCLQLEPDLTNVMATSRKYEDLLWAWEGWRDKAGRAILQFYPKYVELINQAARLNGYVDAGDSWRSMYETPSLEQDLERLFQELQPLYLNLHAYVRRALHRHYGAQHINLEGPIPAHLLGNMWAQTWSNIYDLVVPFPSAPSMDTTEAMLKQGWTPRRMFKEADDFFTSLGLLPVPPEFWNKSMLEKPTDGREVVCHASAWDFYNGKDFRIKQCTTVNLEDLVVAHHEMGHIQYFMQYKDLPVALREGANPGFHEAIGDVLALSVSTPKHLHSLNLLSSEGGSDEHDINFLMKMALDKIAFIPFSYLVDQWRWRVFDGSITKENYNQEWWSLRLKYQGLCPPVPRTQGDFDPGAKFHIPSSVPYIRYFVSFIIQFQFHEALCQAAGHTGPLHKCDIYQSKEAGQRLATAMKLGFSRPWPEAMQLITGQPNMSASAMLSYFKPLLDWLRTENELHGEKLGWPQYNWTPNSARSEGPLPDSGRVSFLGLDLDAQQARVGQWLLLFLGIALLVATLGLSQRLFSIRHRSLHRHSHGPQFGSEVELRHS", "settings": "reported in reference 3; cited from earlier work"}, "[2]": {"system": "scopolamine-induced amnesia", "settings": "male ddY mice; single oral dose of 5000 nmol/kg weight (1300 μg/kg) 60 min before Y-shaped maze test; scopolamine 1 mg/kg s.c. 30 min before test", "procedure": "Water (control), scopolamine alone, or 500 nmol/kg weight or 5000 nmol/kg weight of FP together with scopolamine, was administered to mice, and their respective prophylactic effects against amnesia were evaluated in accordance with a method described in Example 1.\nMale mice (n=15) of the ddY strain (approximately 7-week old) were used, and they took food and water ad lib. Test substances used were 500 mol/kg weight (130 μg/kg weight) or 5000 nmol/kg weight (1300 μg/kg weight) of FP. The test substances were administered to the mice once orally 60 minutes before the execution of a Y-shaped maze test for evaluation of spontaneous alternation behavior. […] The sequence of the arms each of the mice entered was recorded. The number of entries by each of the mice for each of the arms during the measurement time was counted to be the total number of entries. […] The percentage of spontaneous alternation behavior was calculated by dividing the number of spontaneous alternation behavior by a number obtained by subtracting 2 from the total number of entries, and multiplying a resultant number by 100. […] The measured values were expressed in the form of mean±standard error for each group. A significant difference between the control group and the scopolamine control group was calculated using Student's t-test. […]"}},
  "data": [
    {"substance": "Phe-Pro", "values": [
      {"measurement": "hypotensive lowering activity based on ACE inhibitory activity", "setting": "[1]", "value": "hypotensive lowering activity based on ACE inhibitory activity has been reported"},
      {"measurement": "prophylactic activity against amnesia (percentage of spontaneous alternation behavior)", "setting": "[2]", "value": "had a prophylactic activity against amnesia"}
    ]}
  ]
}
